Test results published in US11337990B2, “Human milk oligosaccharides to promote growth of beneficial bacteria” (ABBOTT LABORATORIES, priority 2010, dated 2022).
“Also recorded” adds a separate entry of the source.

Tests used:
infant fecal bacteria = assay: In vitro substrate fermentation model with infant feces (pH, SCFA, lactate); assay type: cell-based, human infant
Caco-2 cells = assay: Alkaline phosphatase activity per milligram of protein (cell differentiation), Caco-2; assay type: cell-based, human; settings: Example 48: LNnT or 2′FL 20, 200, 2000 mg/L; 6′SL 40, 400, 4000 mg/mL; 72 hours
Experimental: In a second experiment, Caco-2 cells, which model more mature epithelial cells of the small intestine, are incubated in a humidified atmosphere of 5% carbon dioxide at 37° C. in the presence of LNnT or 2′FL at concentrations of 0 mg/L (“0”), 20 mg/L (“20”), 200 mg/L (“200”), and 2000 mg/L (“2000”) or in the presence of 6′SL at concentrations of 0 mg/mL (“0”), 40 mg/mL (“40”), 400 mg/mL (“400”), and 4000 mg/mL (“4000”) for 72 hours. The culture medium utilized is Dulbecco's Modified Eagle Medium (Life Technologies, Foster City Calif.) supplemented with 10% fetal calf serum and 2 mM glutamine. The controls (“energy”) consist of 91.5 mg lactose and 64.2 mg N-acetyllactosamine/L for LNnT; 133 mg lactose and 67 mg fucose/L for 2′FL; and 195 mg lactose and 205 mg sialic acid/L for 6′SL. The impact of the LNnT, 2′FL, and 6′SL at various levels and the control on Caco-2 cell proliferation is measured using a conventional BrdU assay, which measures the number of cells that have recently synthesized DNA. […] Additionally, the impact of LNnT, 2′FL, and 6′SL at various levels and the controls on the alkaline phosphatase activity per milligram of protein for Caco-2 cells, which is an indication of cell differentiation, is measured.

Bifidobacterium spp. = assay: qPCR of bacterial populations in in vitro fecal fermentation; assay type: cell-based; settings: overall, 0-12 h fermentation
HT-29 cells = assay: HT-29 cell proliferation, BrdU assay; assay type: cell-based, human
Experimental: In a first experiment, HT-29 cells, which model the immature epithelial cells of the small intestine, are incubated in a humidified atmosphere of 5% carbon dioxide at 37 C in the presence of LNnT at concentrations of 0 mg/L (“0”), 100 mg/L (“100”), 200 mg/L (“200”), and 400 mg/L (“400”) for either 48 hours or 72 hours. The culture medium utilized is Dulbecco's Modified Eagle Medium (Life Technologies, Foster City Calif.) supplemented with 10% fetal calf serum and 2 mM glutamine. The control consists of a combination of 91.5 mg lactose and 62.4 mg galactosamine (“LG”) per Liter of the Dulbecco's Modified Eagle Medium set forth above. The impact of the LNnT at various levels and the control on HT-29 cell proliferation is measured using a conventional BrdU assay, which measures the number of cells that have recently synthesized DNA.
In a first experiment, HT-29 cells, which model the immature epithelial cells of the small intestine, are incubated in a humidified atmosphere of 5% carbon dioxide at 37° C. in the presence of LNnT or 2′FL at concentrations of 0 mg/L (“0”), 20 mg/L (“20”), 200 mg/L (“200”), and 2000 mg/L (“2000”) or in the presence of 6′SL at concentrations of 0 mg/mL (“0”), 40 mg/mL (“40”), 400 mg/mL (“400”), and 4000 mg/mL (“4000”) for 72 hours. The culture medium utilized is Dulbecco's Modified Eagle Medium (Life Technologies, Foster City Calif.) supplemented with 10% fetal calf serum and 2 mM glutamine. The controls (“energy”) consist of 91.5 mg lactose and 64.2 mg N-acetyllactosamine/L for LNnT; 133 mg lactose and 67 mg fucose/L for 2′FL; and 195 mg lactose and 205 mg/L sialic acid for 6′SL. The impact of the LNnT, 2′FL, and 6′SL at various levels and the controls on HT-29 cell proliferation is measured using a conventional BrdU assay, which measures the number of cells that have recently synthesized DNA. […] Additionally, the impact of LNnT, 2′FL, and 6′SL at various levels and the controls on the alkaline phosphatase activity per milligram of protein for HT-29 cells, which is an indicator of cell differentiation, is measured.

Question: Which fermentation rate (infant fecal bacteria) does the source give for `CC(=O)N[C@H]1[C@H](O[C@H]2[C@@H](O)[C@@H](CO)O[C@@H](O[C@H]3[C@H](O)[C@@H](O)C(O)O[C@@H]3CO)[C@@H]2O)O[C@H](CO)[C@@H](O[C@@H]2O[C@H](CO)[C@H](O)[C@H](O)[C@H]2O)[C@@H]1O` (mixture of isomers) [LNnT, Lacto-N-neotetraose] here?
Answer: about 4,488 μg/g of dry matter/hour

Question: And the acetate production (infant fecal bacteria; 3 and 6 h)?
Answer: produce similar amounts of acetate

Question: And the acetate production (infant fecal bacteria; 6 h)?
Answer: less acetate than GOS

Question: And the “acetate production, formula fed versus breast fed infants” value (infant fecal bacteria; 12 h)?
Answer: greater

Question: What about the lactate production (infant fecal bacteria; 12 h) of the same compound?
Answer: greater (P<0.0001) compared to gum Arabic

Question: And the “total SCFA production, formula fed versus breast fed infants” value (infant fecal bacteria; after 3, 6 and 12 h of fermentation)?
Answer: greater (P=0.01) fermentation by formula fed infants

Question: And the “pH change from baseline” value (infant fecal bacteria; at 3, 6 and 12 h after inoculation)?
Answer: greatest

Question: What about the “fermentability by infant fecal bacteria” value (infant fecal bacteria; overall) of the same compound?
Answer: highly fermentable; also recorded: readily fermented

Question: What about the propionate production (infant fecal bacteria; overall) of the same compound?
Answer: greater (P<0.0001) propionate production than gum Arabic

Question: What about the “relative rate of fermentation” value (infant fecal bacteria; overall) of the same compound?
Answer: fermented more rapidly than 6′SL; also recorded: fermentation rates similar to GOS

Question: What about the lactate production (infant fecal bacteria; time not stated (between the 3 h and 12 h statements)) of the same compound?
Answer: greater (P<0.0001)

Question: What about the lactate accumulation (infant fecal bacteria; up to 12 h) of the same compound?
Answer: significant amounts of lactate

Question: And the “alkaline phosphatase activity per milligram of protein (cell differentiation)” value (Caco-2 cells)?
Answer: trend toward an increase

Question: And the bifidobacteria populations (Bifidobacterium spp.)?
Answer: may also be bifidogenic; also recorded: tended to generally increase bifidobacteria levels

Question: And the HT-29 cell proliferation (HT-29 cells; Example 47: 100, 200, 400 mg/L, 48 or 72 hours)?
Answer: reduced HT-29 cell proliferation; also recorded: inhibits intestinal cell proliferation

Question: What about the HT-29 cell proliferation (HT-29 cells; Example 48: LNnT or 2′FL 20, 200, 2000 mg/L, 6′SL 40, 400, 72 hours) of the same compound?
Answer: capable of reducing cell proliferation at higher doses; also recorded: inhibits intestinal cell proliferation in immature epithelial cells
